Results as given in patent publication US8952024B2, “Herbicidal pyrimidone derivatives” (E I du Pont de Nemours and Company, priority 2009, dated 2015).

How the values were obtained:
Format in all cases: in vivo
[1] = system: barnyardgrass (Echinochloa crus-galli); assay: Test A pre-/postemergence plant response
In short: (§1)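 Each species was treated preemergence via directed soil spray and postemergence at the one- to two-leaf stage, with compounds formulated in a non-phytotoxic solvent plus surfactant. Visual injury relative to untreated controls was rated after about ten days on a 0–100 scale.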

[2] = system: pigweed (Amaranthus retroflexus); assay: Test A pre-/postemergence plant response
In short: as §1

[3] = system: Italian ryegrass (Lolium multiflorum); assay: Test B pre-/postemergence plant response
In short: (§2)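 Response scores were assigned visually after 13 to 15 days in a greenhouse, comparing treated pots with controls on a 0–100 scale where 100 denotes complete control. Preemergence treatments went onto freshly seeded loam/sand soil; postemergence treatments onto plants 2 to 18 cm tall.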

[4] = system: Surinam grass (Brachiaria decumbens); assay: Test B pre-/postemergence plant response
In short: as §2

[5] = system: blackgrass (Alopecurus myosuroides); assay: Test B pre-/postemergence plant response
In short: as §2

[6] = system: downy bromegrass (Bromus tectorum); assay: Test B pre-/postemergence plant response
In short: as §2

[7] = system: goosegrass (Eleusine indica); assay: Test B pre-/postemergence plant response
In short: as §2

[8] = system: large crabgrass (Digitaria sanguinalis); assay: Test B pre-/postemergence plant response
In short: as §2

[9] = system: morningglory (Ipomoea coccinea); assay: Test B pre-/postemergence plant response
In short: as §2

[10] = system: velvetleaf (Abutilon theophrasti); assay: Test B pre-/postemergence plant response
In short: as §2

[11] = system: wheat (Triticum aestivum); assay: Test B pre-/postemergence plant response
In short: as §2

[12] = system: woolly cupgrass (Eriochloa villosa); assay: Test B pre-/postemergence plant response
In short: as §2

[13] = system: yellow nutsedge (Cyperus esculentus); assay: Test B pre-/postemergence plant response
In short: as §2

[14] = Postemergence, 125 g ai/ha, 0 to 100 scale where 0 is no effect and 100 is complete control
[15] = Postemergence, 500 g ai/ha, visual injury, 0 to 100 scale (0 no effect, 100 complete control), approx. ten days
[16] = Preemergence, 125 g ai/ha, 0 to 100 scale, 0 = no effect, 100 = complete control
[17] = Preemergence, 500 g ai/ha, 0 to 100 scale, 0 = no effect, 100 = complete control
[18] = Postemergence, 31 g ai/ha, 0 to 100 scale (0 no effect, 100 complete control)
[19] = Postemergence, 250 g ai/ha, scale 0 to 100 (0 no effect, 100 complete control), 13 to 15 days
[20] = Postemergence, 62 g ai/ha, scale 0 to 100 (0 no effect, 100 complete control)
[21] = Preemergence, 31 g ai/ha, scale 0 to 100 (0 no effect, 100 complete control)
[22] = Preemergence, 62 g ai/ha, scale 0 to 100, 0 no effect, 100 complete control
[23] = Preemergence, 125 g ai/ha, scale 0 to 100, 0 no effect, 100 complete control
[24] = Preemergence, 250 g ai/ha, 0 to 100 scale
[25] = Postemergence, 125 g ai/ha, scale 0 to 100 (0 no effect, 100 complete control)

CCc1cccc(-n2c(-c3ccccc3)ncc(C(=O)C3=C(O)CCCC3=O)c2=O)c1 [Compound 220]
Plant response rating, Barnyardgrass [1, 14]: 90 | Barnyardgrass plant response rating [1, 15]: 90 | Plant response rating, Barnyardgrass [1, 16]: 10 | Plant response rating, Barnyardgrass [1, 17]: 90 | Plant response rating, Pigweed [2, 14]: 100 | Pigweed plant response rating [2, 15]: 100 | Plant response rating, Pigweed [2, 16]: 80 | Plant response rating, Pigweed [2, 17]: 100 | Plant response rating, Ryegrass, Italian [3, 18]: 5 | Plant response rating, Ryegrass, Italian [3, 19]: 60 | Plant response rating, Ryegrass, Italian [3, 20]: 5 | Plant response rating, Ryegrass, Italian [3, 21]: 0 | Plant response rating, Ryegrass, Italian [3, 22]: 0 | Plant response rating, Ryegrass, Italian [3, 23]: 0 | Ryegrass, Italian plant response rating [3, 24]: 0 | Plant response rating, Surinam Grass [4, 18]: 50 | Plant response rating, Surinam Grass [4, 19]: 75 | Plant response rating, Surinam Grass [4, 20]: 60 | Plant response rating, Surinam Grass [4, 21]: 10 | Plant response rating, Surinam Grass [4, 22]: 20 | Plant response rating, Surinam Grass [4, 23]: 45 | Surinam Grass plant response rating [4, 24]: 65 | Plant response rating, Blackgrass [5, 18]: 10 | Plant response rating, Blackgrass [5, 25]: 30 | Plant response rating, Blackgrass [5, 19]: 40 | Plant response rating, Blackgrass [5, 20]: 20 | Plant response rating, Blackgrass [5, 21]: 10 | Plant response rating, Blackgrass [5, 22]: 20 | Plant response rating, Blackgrass [5, 23]: 20 | Blackgrass plant response rating [5, 24]: 35 | Plant response rating, Bromegrass, Downy [6, 18]: 10 | Plant response rating, Bromegrass, Downy [6, 25]: 15 | Plant response rating, Bromegrass, Downy [6, 19]: 30 | Plant response rating, Bromegrass, Downy [6, 20]: 10 | Plant response rating, Bromegrass, Downy [6, 21]: 0 | Plant response rating, Bromegrass, Downy [6, 22]: 0 | Plant response rating, Bromegrass, Downy [6, 23]: 0 | Bromegrass, Downy plant response rating [6, 24]: 5 | Plant response rating, Goosegrass [7, 18]: 80 | Plant response rating, Goosegrass [7, 25]: 85 | Plant response rating, Goosegrass [7, 19]: 90 | Plant response rating, Goosegrass [7, 20]: 85 | Plant response rating, Goosegrass [7, 21]: 65 | Plant response rating, Goosegrass [7, 22]: 95 | Plant response rating, Goosegrass [7, 23]: 98 | Goosegrass plant response rating [7, 24]: 100 | Plant response rating, Crabgrass, Large [8, 18]: 70 | Plant response rating, Crabgrass, Large [8, 25]: 85 | Plant response rating, Crabgrass, Large [8, 19]: 90 | Plant response rating, Crabgrass, Large [8, 20]: 75 | Plant response rating, Crabgrass, Large [8, 21]: 0 | Plant response rating, Crabgrass, Large [8, 22]: 75 | Plant response rating, Crabgrass, Large [8, 23]: 80 | Crabgrass, Large plant response rating [8, 24]: 100 | Plant response rating, Morningglory [9, 18]: 65 | Plant response rating, Morningglory [9, 25]: 98 | Plant response rating, Morningglory [9, 19]: 100 | Plant response rating, Morningglory [9, 20]: 65 | Plant response rating, Morningglory [9, 21]: 0 | Plant response rating, Morningglory [9, 22]: 0 | Plant response rating, Morningglory [9, 23]: 0 | Morningglory plant response rating [9, 24]: 90 | Plant response rating, Velvetleaf [10, 18]: 80 | Plant response rating, Velvetleaf [10, 19]: 100 | Plant response rating, Velvetleaf [10, 20]: 90 | Plant response rating, Velvetleaf [10, 21]: 45 | Plant response rating, Velvetleaf [10, 22]: 70 | Plant response rating, Velvetleaf [10, 23]: 90 | Velvetleaf plant response rating [10, 24]: 100 | Plant response rating, Wheat [11, 18]: 0 | Plant response rating, Wheat [11, 19]: 15 | Plant response rating, Wheat [11, 20]: 0 | Plant response rating, Wheat [11, 21]: 0 | Plant response rating, Wheat [11, 22]: 0 | Plant response rating, Wheat [11, 23]: 0 | Wheat plant response rating [11, 24]: 5 | Plant response rating, Cupgrass, Woolly [12, 18]: 60 | Plant response rating, Cupgrass, Woolly [12, 25]: 65 | Plant response rating, Cupgrass, Woolly [12, 19]: 65 | Plant response rating, Cupgrass, Woolly [12, 20]: 60 | Plant response rating, Cupgrass, Woolly [12, 21]: 0 | Plant response rating, Cupgrass, Woolly [12, 22]: 0 | Plant response rating, Cupgrass, Woolly [12, 23]: 10 | Cupgrass, Woolly plant response rating [12, 24]: 25 | Plant response rating, Nutsedge, Yellow [13, 18]: 10 | Plant response rating, Nutsedge, Yellow [13, 25]: 25 | Plant response rating, Nutsedge, Yellow [13, 19]: 55 | Plant response rating, Nutsedge, Yellow [13, 20]: 25 | Plant response rating, Nutsedge, Yellow [13, 21]: 0 | Plant response rating, Nutsedge, Yellow [13, 22]: 0 | Plant response rating, Nutsedge, Yellow [13, 23]: 60 | Nutsedge, Yellow plant response rating [13, 24]: 90
